Target: T1, human TRPV1 (Homo sapiens, UniProt Q8NER1)
T1 construct: expressed in transfected cells; host or cells: CHO-K1 cells, pCAGGS vector, clones selected by limiting dilution
Assay: Capsaicin-induced Ca influx in transformed CHO cells, FDSS-6000 (b-1), A2 value
Assay type: cell-based
Details: concentration shifting the capsaicin concentration-reaction curve two times rightward; CHO cells expressing TRPV1
Description: (1) Measurement of Capsaicin-Induced Ca Influx in a Transformed CHO Cell Line Expressing Human TRPV1
(a) Establishment of a Transformed CHO Cell Line Expressing Human and Rat TRPV1
Human and rat vanilloid receptor 1 (hTRPV1 and rTRPV1) cDNA was cloned from human brain and rat dorsal root ganglion, respectively. The cloned TRPV1 cDNA was incorporated in a pCAGGS vector. The vector was introduced to a CHO-K1 cell line, thus performing transformation. Clones obtained by limiting dilution were stimulated with capsaicin. Clones with a high responsiveness were selected using an increase in the Ca concentration as an indicator. The selected clones were used for the following experiment.
(b-1) Measurement of Ca Influx using FDSS-6000
The transformed CHO cells expressing human or rat TRPV1 were seeded in a 96-well plate (with black walls and transparent bottoms, manufactured by Greiner) at a density of 40,000 cells per well. The cells were cultured at 37° C. in 5% CO2 atmosphere for one night. A loading solution of FLIPR Calcium 3 assay kit (manufactured by Molecular Devices Corporation) containing 2.5 mmol/L of probenecid was then added to each of the wells in the same amount as the culture medium, and the cells were cultured at 37° C. for 60 minutes. For three minutes after the cells were stimulated with capsaicin (1 nmol/L to 1 μmol/L), the change of the intracellular Ca concentration was measured using FDSS-6000 (λex: 480 nm, λem: […], manufactured by Hamamatsu Photonics K.K.). The integrated values of the increase rate of the intracellular Ca concentration were calculated for a group treated with the compounds of the present invention and a group treated with a vehicle, thus allowing capsaicin concentration-reaction curves to be obtained. A concentration (A2 value) of each of the compounds of the present invention, at which the capsaicin concentration-reaction curve obtained when the cells were treated with the vehicle was shifted two times rightward, was calculated. The inhibitory effects of the test compounds were compared using this value as an indicator.

T1 sequence (Q8NER1 whole entry): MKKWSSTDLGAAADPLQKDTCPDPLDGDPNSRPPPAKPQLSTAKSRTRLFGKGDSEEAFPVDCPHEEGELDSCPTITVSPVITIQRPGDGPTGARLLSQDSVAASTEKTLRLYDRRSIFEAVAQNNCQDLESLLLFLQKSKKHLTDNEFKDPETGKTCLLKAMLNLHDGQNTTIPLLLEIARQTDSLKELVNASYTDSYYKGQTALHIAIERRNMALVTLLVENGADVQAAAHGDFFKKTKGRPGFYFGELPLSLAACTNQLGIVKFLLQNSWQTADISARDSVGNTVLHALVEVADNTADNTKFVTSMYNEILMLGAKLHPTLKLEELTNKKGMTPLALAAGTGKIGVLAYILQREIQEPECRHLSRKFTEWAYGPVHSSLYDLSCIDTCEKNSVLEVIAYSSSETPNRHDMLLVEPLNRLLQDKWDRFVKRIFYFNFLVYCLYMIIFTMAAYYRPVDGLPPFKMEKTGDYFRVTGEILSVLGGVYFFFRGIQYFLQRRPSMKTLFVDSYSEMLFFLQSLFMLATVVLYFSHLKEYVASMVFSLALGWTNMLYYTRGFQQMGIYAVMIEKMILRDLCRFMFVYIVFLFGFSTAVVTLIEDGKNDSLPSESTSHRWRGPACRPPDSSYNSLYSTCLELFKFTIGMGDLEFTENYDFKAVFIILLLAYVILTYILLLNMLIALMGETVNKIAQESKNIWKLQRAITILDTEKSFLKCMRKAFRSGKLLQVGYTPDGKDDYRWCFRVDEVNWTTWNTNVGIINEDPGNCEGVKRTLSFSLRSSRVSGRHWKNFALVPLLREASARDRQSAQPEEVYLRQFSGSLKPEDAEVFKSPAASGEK

A2 value, A (A2 value of less than 100 nM):
CN1CC(=O)Nc2cc(NC(=O)/C=C3\CCCOc4cc(C(F)(F)F)ccc43)ccc21 [EXAMPLE 8, (E)-2-(8-trifluoromethyl-3,4-dihydrobenzo[b]oxepin-5 (2H)-ylidene)-N-(4-methyl-3,4-dihydro-2(1H)-quinoxalinon-7-yl)acetamide]
O=C(/C=C1\CCCOc2cc(C(F)(F)F)ccc21)Nc1ccc2c(c1)NC(=O)C(CO)N2 (centres unmarked) [EXAMPLE 9, (E)-2-(8-trifluoromethyl-3,4-dihydrobenzo[b]oxepin-5(2H)-ylidene)-N-(3-hydroxymethyl-3,4-dihydro-2(1H)-quinoxalinon-7-yl)acetamide]
CN1c2ccc(NC(=O)/C=C3\CCCOc4cc(C(F)(F)F)ccc43)cc2NC(=O)C1(C)C [EXAMPLE 11, (E)-2-(8-trifluoromethyl-3,4-dihydrobenzo[b]oxepin-5(2H)-ylidene)-N-(3,3-dimethyl-4-methyl-3,4-dihydro-2(1H)-quinoxalinon-7-yl)acetamide]
O=C(/C=C1\CCCOc2cc(C(F)(F)F)ccc21)Nc1ccc2c(c1)NC(=O)OC2 [EXAMPLE 12, (E)-2-(8-trifluoromethyl-3,4-dihydrobenzo[b]oxepin-5(2H)-ylidene)-N-(1,4-dihydro-2H-3,1-benzoxadin-2-on-7-yl)acetamide]
COCCN1Cc2ccc(NC(=O)/C=C3\CCCOc4cc(C(F)(F)F)ccc43)cc2NC1=O [EXAMPLE 16, (E)-2-(8-trifluoromethyl-3,4-dihydrobenzo[b]oxepin-5(2H)-ylidene)-N-(3-(2-methoxyethyl)-3,4-dihydro-2(1H)-quinazolinon-7-yl)acetamide]
O=C(/C=C1\CCCOc2cc(C(F)(F)F)ccc21)Nc1ccc2c(c1)NS(=O)(=O)NC2 [EXAMPLE 17, (E)-2-(8-trifluoromethyl-3,4-dihydrobenzo[b]oxepin-5(2H)-ylidene)-N-(3,4-dihydro-2,2-dioxo-1-H-2,1,3-benzothiadiazin-7-yl)acetamide]
O=C(/C=C1\CCCOc2cc(C(F)(F)F)ccc21)Nc1cccc2c1CCC(=O)N2CCO [EXAMPLE 19, (E)-2-(8-trifluoromethyl-3,4-dihydrobenzo[b]oxepin-5(2H)-ylidene)-N-(1-(2-hydroxyethyl)-3,4-dihydro-2(1H)-quinolinon-5-yl)acetamide]
O=C(/C=C1\CCCOc2cc(C(F)(F)F)ccc21)Nc1cccc2c1OCC(=O)N2 [EXAMPLE 20, (E)-2-(8-trifluoromethyl-3,4-dihydrobenzo[b]oxepin-5(2H)-ylidene)-N-(2H-1,4-benzoxazin-3(4H)-on-8-yl)acetamide]
O=C(/C=C1\CCCOc2cc(C(F)(F)F)ccc21)Nc1cccc2c1NCC(=O)N2 [EXAMPLE 21, (E)-2-(8-trifluoromethyl-3,4-dihydrobenzo[b]oxepin-5(2H)-ylidene)-N-(3,4-dihydro-2 (1H)-quinoxalinon-5-yl)acetamide]
CN1CC(=O)Nc2cccc(NC(=O)/C=C3\CCCOc4cc(C(F)(F)F)ccc43)c21 [EXAMPLE 22, (E)-2-(8-trifluoromethyl-3,4-dihydrobenzo[b]oxepin-5(2H)-ylidene)-N-(3,4-dihydro-4-methyl-2 (1H)-quinoxalinon-5-yl)acetamide]
CC1(C)C/C(=C\C(=O)Nc2ccc3c(c2)NC(=O)CC3)c2ccc(C(F)(F)F)cc2O1 [EXAMPLE 24, (E)-2-(7-trifluoromethyl-2,2-dimethylchroman-4-ylidene)-N-(3,4-dihydroquinolin-2(1H)-on-7-yl)acetamide]
CN1C(=O)CCc2ccc(NC(=O)/C=C3\CC(C)(C)Oc4cc(C(F)(F)F)ccc43)cc21 [EXAMPLE 25, (E)-2-(7-trifluoromethyl-2,2-dimethylchroman-4-ylidene)-N-(1-methyl-3,4-dihydro-2(1H)-quinolinon-7-yl)acetamide]
O=C(/C=C1\NCCOc2cc(C(F)(F)F)ccc21)Nc1ccc2c(c1)NC(=O)CC2 [EXAMPLE 27, (Z)-2-(8-trifluoromethyl-3,4-dihydrobenzo[f][1,4]oxazepin-5(2H)-ylidene)-N-(3,4-dihydroquinolin-2(1H)-on-7-yl)acetamide]
O=C(/C=C1\CCCOc2cc(C(F)(F)F)ccc21)Nc1ccc2c(c1)NC(=O)C(CO)C2 (centres unmarked) [EXAMPLE 28, (E)-2-(8-trifluoromethyl-3,4-dihydrobenzo[b]oxepin-5(2H)-ylidene)-N-(3-hydroxymethyl-3,4-dihydro-2(1H)-quinolinon-7-yl)acetamide]
CC1(C)Cc2ccc(NC(=O)/C=C3\CCCOc4cc(C(F)(F)F)ccc43)cc2NC1=O [EXAMPLE 29, (E)-2-(8-trifluoromethyl-3,4-dihydrobenzo[b]oxepin-5(2H)-ylidene)-N-(3,3-dimethyl-3,4-dihydro-2(1H)-quinolinon-7-yl)acetamide]
O=C(/C=C1\CCCOc2cc(C(F)(F)F)ccc21)Nc1ccc2c(c1)NC(=O)C(N1CCOCC1)C2 (centres unmarked) [EXAMPLE 34, (E)-2-(8-trifluoromethyl-3,4-dihydrobenzo[b]oxepin-5(2H)-ylidene)-N-(3-(4-morpholinyl)-3,4-dihydro-2(1H)-quinolinon-7-yl)acetamide]
O=C1CNc2cccc(NC(=O)/C=C3\CCCOc4cc(C(F)(F)F)ccc43)c2C1 [EXAMPLE 36, (E)-2-(8-trifluoromethyl-3,4-dihydrobenzo[b]oxepin-5(2H)-yliden)-N-(3-oxo-1,2,3,4-tetrahydroquinolin-5-yl)acetamide]
O=C(/C=C1\CCCOc2cc(C(F)(F)F)ccc21)Nc1ccc(OCCCO)c2c1CCC(=O)N2 [EXAMPLE 37, (E)-2-(8-trifluoromethyl-3,4-dihydrobenzo[b]oxepin-5(2H)-ylidene)-N-(8-(3-hydroxypropoxy)-3,4-dihydro-2(1H)-quinolinon-5-yl)acetamide]
O=C(/C=C1\CCCOc2cc(C(F)(F)F)ccc21)Nc1ccc2c(c1)NC(=O)N(Cc1ccccc1)C2 [EXAMPLE 38, (E)-2-(8-trifluoromethyl-3,4-dihydrobenzo[b]oxepin-5(2H)-ylidene)-N-(3-benzyl-3,4-dihydro-2(1H)-quinazolinon-7-yl)acetamide]
CN1C(=O)N(Cc2ccccc2)Cc2ccc(NC(=O)/C=C3\CCCOc4cc(C(F)(F)F)ccc43)cc21 [EXAMPLE 39, (E)-2-(8-trifluoromethyl-3,4-dihydrobenzo[b]oxepin-5(2H)-ylidene)-N-(3-benzyl-1-methyl-3,4-dihydro-2(1H)-quinazolinon-7-yl)acetamide]

Source: US20100016285A1, “HETEROCYCLIDENE-N-(ARYL) ACETAMIDE DERIVATIVE” (MOCHIDA PHARMACEUTICAL CO., LTD., priority 2007, published 2010)
